Columns and labels:
[1] = test system: rapidly dividing keratinocytes; experiment: Assay of DNA synthesis ([3H]thymidine incorporation) in rapidly dividing keratinocytes; type: cell-based; details: 24 hours; for effect on DNA synthesis in presence of 125 μM Ca2+: 125 μM Ca2+ medium; for effect on DNA synthesis ([3H]thymidine incorporation into DNA): control (25 μM Ca2+) medium
Procedure: Keratinocytes were prepared from ICR CD-I outbred mice in accordance with a protocol approved by the Institutional Animal Care and Use Committee. Briefly, the skins were harvested and incubated overnight in 0.25% trypsin at 4° C. The epidermis and dermis were separated and basal keratinocytes scraped from the underside of the epidermis. The cells were collected by centrifugation and incubated overnight in an atmosphere of 95% air/5% carbon dioxide at 37° C. in plating medium as described in Dodd M E, Ristich V L, Ray S, Lober R M, Bollag W B (2005) Regulation of protein kinase D during differentiation and proliferation of primary mouse keratinocytes. J Invest Dermatol 125:294-306, incorporated herein by reference. The plating medium was replaced with serum-free keratinocyte medium (SFKM) also as in Dodd, et al., and the cells were refed every 1-2 days with fresh medium until use.
[^3H]Thymidine incorporation into DNA was determined as a measure of DNA synthesis as previously described by Griner, et al., above. Near-confluent keratinocyte cultures were incubated for 24 hours in SFKM containing the indicated additions. PG was added in the form of liposomes prepared by bath sonication of dried PG in SFKM to make a stock solution of 2 mg/mL. [^3H]Thymidine at a final concentration of 1 μCi/mL was then added to the cells for an additional 1-hour incubation. Reactions were terminated by washing with PBS- and macromolecules precipitated with ice-cold 5% trichloroacetic acid. Cells were solubilized in 0.3 M NaOH and the radioactivity incorporated into DNA quantified by liquid scintillation spectroscopy.
[^3H]Thymidine incorporation was used as a measure of DNA synthesis and was performed as described in Example 2. Liposomes containing PG and functional derivatives thereof were prepared by bath sonication as described in Example 2, with the exception that different concentrations of material were employed.

AQP3 null mutant mouse = details: studies of the AQP3 null mutant mouse; cited from earlier work
[2] = test system: primary epidermal keratinocytes; experiment: Radiolabeled phosphatidylglycerol formation in intact keratinocytes; type: cell-based, mouse
Procedure: Primary epidermal keratinocytes were prepared from 1-3-day old neonatal ICR mice after trypsin flotation of the skin and mechanical separation of the epidermis from the dermis. The epidermal cells were released by scraping, collected by centrifugation and plated in 6-well dishes in a medium consisting of MEM containing 25 μM calcium, 2% dialyzed fetal bovine serum, 2 mM glutamine, 5 ng/mL EGF, ITS (6.25 μg/mL insulin+6.25 μg/mL transferrin+6.25 ng/mL selenious acid+5.35 μg/mL linoleic acid+1.25% bovine serum albumin), 100 U/mL penicillin, 100 μg/mL streptomycin and 0.25 μg/mL fungizone. After an overnight incubation, the cells were refed with serum-free keratinocyte medium (SFKM), in which 2% dialyzed fetal bovine serum was replaced with 90 μg/mL bovine pituitary extract. Cells were refed with fresh medium every 1-3 days.
For the PLD assay cultured primary keratinocytes were labeled for 20-24 hours with 2.5 μCi/ml [^3H] oleic acid. The cells were then exposed to vehicle or 100 nM PMA in the presence of 0.5% ethanol for 30 minutes. To measure the formation of radiolabeled phosphatidylglycerol, cells were treated for 24 hours with SFKM containing vehicle, 250 nM 1,25-dihydroxyvitamin D3 or 125 μM calcium and then labeled for an additional 30 minutes with 1-2.5 μCi/mL [^3H] or 0.4-0.5 μCi/mL [^14C]glycerol. For experiments investigating the extracellular calcium dependence of PG formation, cells were incubated for 24 hours in SFKM containing various calcium concentrations prior to the addition of 5 μCi/mL [^3H]glycerol for 30 minutes. In some cases, cells were stimulated with 25 μM calcium (control)—or 125 μM calcium-containing SFKM for 24 hours prior to the addition of [^14C]glycerol in the presence and absence of 1% ethanol. To measure phosphatidylglycerol formation in response to PMA, unlabeled cells were stimulated with 100 nM PMA in the presence of radiolabeled glycerol, as above. Reactions were terminated and the radiolabeled phosphatidylalcohol extracted, separated by thin-layer chromatography and quantified as described by Bollag (1998), referenced above.

PLD = PLD activity (radiolabeled phosphatidylethanol formation in [3H]oleate-prelabeled keratinocytes); type: cell-based, mouse; details: 100 nM PMA, 30 minutes, 0.5% ethanol; p<0.02
Procedure: Near-confluent keratinocytes were incubated without radiolabel (for phosphatidylglycerol production) or pre-labeled with 2.5 μCi/mL [^3H]oleate (for phosphatidylethanol formation) for 20-24 hours. The cells were then stimulated for 30 minutes with vehicle (0.05-0.1% DMSO; Con) or 100 nM PMA in the presence of [^3H]glycerol (for phosphatidylglycerol production), or in the presence of 0.5% ethanol (for phosphatidylethanol formation). Reactions were terminated by the addition of 0.2% SDS (±5 mM EDTA) and radiolabeled phosphatidylglycerol (PG), or phosphatidylethanol (PEt) was extracted, separated by thin-layer chromatography and quantified. Values are expressed as -fold over control and represent the means±SEM of three separate experiments performed in duplicate or triplicate; *p<0.02 versus the appropriate control by an unpaired Student's t-test.
For the PLD assay cultured primary keratinocytes were labeled for 20-24 hours with 2.5 μCi/ml [^3H] oleic acid. The cells were then exposed to vehicle or 100 nM PMA in the presence of 0.5% ethanol for 30 minutes. […] Reactions were terminated and the radiolabeled phosphatidylalcohol extracted, separated by thin-layer chromatography and quantified as described by Bollag (1998), referenced above.

primary keratinocytes = experiment: [3H]Glycerol uptake; type: cell-based, mouse; details: 30 minutes pretreatment with 100 nM PMA, then [3H]glycerol 5 minutes
Procedure: Confluent primary keratinocytes were incubated for 30, 60, 90, 120, 300 or 600 seconds with SFKM containing 20 mM HEPES (for additional pH buffering), 1 μCi/mL [^3H]glycerol and 0.1% DMSO (control) or 100 nM PMA. Reactions were terminated by washing three times with ice-cold phosphate-buffered saline lacking divalent cations. The cells were subsequently solubilized in 0.3 M NaOH and aliquots of this extract subjected to liquid scintillation counting. Counts obtained from duplicate samples at each time point were averaged and graphed, and a linear equation was determined for each condition. Correlation coefficients obtained were typically 0.99 or greater (mean correlation coefficient for control was 0.992±0.002 and for PMA, 0.994±0.001). Slopes obtained from multiple experiments were averaged and analyzed statistically for significant differences between conditions.
The linearity of glycerol uptake determined above allowed measurement of uptake at a single time point to determine the effects of other treatments on this process. Thus, confluent keratinocytes were preincubated for 30 minutes with 0.1% DMSO (control) or 100 nM PMA prior to measuring [^3H]glycerol uptake as above but at 5 minutes only. Similarly, near-confluent primary keratinocytes were incubated for 24 hours with SFKM containing various calcium concentrations prior to measurement of radiolabeled glycerol uptake for 5 minutes.
Near-confluent keratinocyte cultures were incubated for 24 hours in SFKM (25 μM calcium) or SFKM containing 125 μM calcium (125 μM Ca^2+-SFKM) and the glycerol uptake assay performed as previously described in Zheng & Bollag (2003). Briefly, cells were incubated with SFKM containing 20 mM HEPES (for additional pH buffering) and 1 μCi/mL [^3H] glycerol for 5 minutes, since it has previously been shown that this time point is in the linear range of [^3H]glycerol uptake (Zheng & Bollag (2003). Reactions were terminated by rapidly washing three times with ice-cold phosphate-buffered saline lacking divalent cations (PBS-). Cells were then solubilized in 0.3 M NaOH and [^3H]glycerol uptake quantified by liquid scintillation spectroscopy.

SMILES	effect on DNA synthesis in presence of 125 μM Ca2+ [1]	effect on DNA synthesis ([3H]thymidine incorporation into DNA) [1]	correction of the epidermal phenotype of the knockout model (AQP3 null mutant mouse)	also measured
CC(O)CO (centres unmarked) [1,2-propylene glycol]	dose dependent inhibition	dose dependent inhibition	not	
OCCCO [1,3-propylene glycol]			not	
C=C1/C(=C\C=C2/CCC[C@]3(C)[C@@H]([C@H](C)CCCC(C)(C)O)CC[C@@H]23)C[C@@H](O)C[C@@H]1O [1,25-dihydroxyvitamin D3]				radiolabeled PG formation relative to control cells ([2]; 24 hours pretreatment (250 nM 1,25-dihydroxyvitamin D3 or 125 μM calcium), then [3H]glycerol 30 minutes): did not increase radiolabeled PG formation; PG production ([2]; intermediate (10 nM) and high (250 nM) concentrations, 24 hours): significantly inhibited PG production
CCCCCCCCCCCCCC(=O)O[C@@H]1[C@@H](C)[C@@]2(O)[C@@H](C=C(CO)C[C@]3(O)C(=O)C(C)=C[C@@H]23)[C@@H]2C(C)(C)[C@]12OC(C)=O [PMA, Phorbol 12-myristate 13-acetate]				PG production ([2]; 100 nM PMA, 30 minutes with [3H]glycerol, p<0.01): decrease in PG production; PLD activity (radiolabeled phosphatidylethanol formation) (PLD): large increase in PLD activity; glycerol uptake (primary keratinocytes): decrease in glycerol uptake
CCO [ethanol]				basal (control) PG production ([2]; 1% ethanol, 25 μM calcium control cells): without affecting basal (control) PG production; PG formation stimulated by preexposure to elevated extracellular calcium ([2]; 1% ethanol, cells pretreated with 125 μM calcium, [14C]glycerol): significantly inhibited PG formation
OC[C@@H](O)[C@H](O)[C@@H](O)CO [xylitol]	no significant effect	no significant effect	not	

From US8808715B1, “Methods and compositions for modulating keratinocyte function” (Georgia Regents Research Institute, Inc, priority 2004, dated 2014)
